Test results as given in patent US7189758B2, “Glucocorticoid mimetics, methods of making them, pharmaceutical formulations, and uses thereof” (Boehringer Ingelheim Pharmaceuticals, Inc., priority 2002, dated 2007).

Each compound was assayed against T1, human glucocorticoid receptor (GR) complex (Homo sapiens, UniProt P04150) (assay: Glucocorticoid receptor competitive binding assay (fluorescence polarization, TAMRA-labeled dexamethasone probe)). Settings: result in words only; IC50 values not given.
T1 construct: made in house; host or cells: insect cells (baculovirus expression), used as crude lysate
T1 sequence (P04150 1-777): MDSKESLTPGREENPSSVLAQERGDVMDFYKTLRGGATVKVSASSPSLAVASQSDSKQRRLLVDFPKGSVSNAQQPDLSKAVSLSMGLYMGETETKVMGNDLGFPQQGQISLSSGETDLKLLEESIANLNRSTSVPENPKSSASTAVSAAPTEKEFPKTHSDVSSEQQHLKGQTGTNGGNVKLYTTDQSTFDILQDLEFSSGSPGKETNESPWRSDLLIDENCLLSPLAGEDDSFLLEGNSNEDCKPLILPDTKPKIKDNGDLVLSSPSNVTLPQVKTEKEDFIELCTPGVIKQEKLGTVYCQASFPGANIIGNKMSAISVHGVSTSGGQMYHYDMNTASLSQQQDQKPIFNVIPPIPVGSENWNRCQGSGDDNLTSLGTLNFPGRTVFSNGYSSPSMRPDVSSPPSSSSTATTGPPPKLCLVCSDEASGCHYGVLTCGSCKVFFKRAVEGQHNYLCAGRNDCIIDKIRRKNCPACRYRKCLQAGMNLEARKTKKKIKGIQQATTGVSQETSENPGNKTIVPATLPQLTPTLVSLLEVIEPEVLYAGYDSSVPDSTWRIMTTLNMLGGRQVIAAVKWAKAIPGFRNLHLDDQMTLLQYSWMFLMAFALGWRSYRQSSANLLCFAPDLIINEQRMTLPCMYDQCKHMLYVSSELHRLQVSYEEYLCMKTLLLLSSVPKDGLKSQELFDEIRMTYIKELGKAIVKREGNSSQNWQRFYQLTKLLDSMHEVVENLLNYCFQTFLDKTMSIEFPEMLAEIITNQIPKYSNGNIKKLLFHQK
Description: Compounds of the invention were evaluated for binding to the steroid receptor by a fluorescence polarization competitive binding assay.
A. Glucocorticoid Receptor Competitive Binding Assay
Step 1. Characterization of the Fluorescent Probe
The wavelengths for maximum excitation and emission of the fluorescent probe should first be measured. An example of such a probe is rhodamine (TAMRA)-labeled dexamethasone.
The affinity of the probe for the steroid receptor was then determined in a titration experiment. The fluorescence polarization value of the probe in assay buffer was measured on an SLM-8100 fluorometer using the excitation and emission maximum values described above. Aliquots of expression vector lysate were added and fluorescence polarization was measured after each addition until no further change in polarization value was observed. Non-linear least squares regression analysis was used to calculate the dissociation constant of the probe from the polarization values obtained for lysate binding to the probe.
Step 2. Screening for Inhibitors of Probe Binding
This assay uses fluorescence polarization (FP) to quantitate the ability of test compounds to compete with tetramethyl rhodamine (TAMRA)-labeled dexamethasone for binding to a human glucocorticoid receptor (GR) complex prepared from an insect expression system. The assay buffer was: 10 mM TES, 50 mM KCl, 20 mM Na2MoO4.2H2O, 1.5 mM EDTA, 0.04% w/v CHAPS, 10% v/v glycerol, 1 mM dithiothreitol, pH 7.4. Test compounds were dissolved to 1 mM in neat DMSO and then further diluted to 10× assay concentration in assay buffer supplemented with 10% v/v DMSO. Test compounds were serially diluted at 10× assay concentrations in 10% DMSO-containing buffer in 96-well polypropylene plates. Binding reaction mixtures were prepared in 96-well black Dynex microtiter plates by sequential addition of the following assay components to each well: 15 μL of 10× test compound solution, 85 μL of GR-containing baculovirus lysate diluted 1:170 in assay buffer, and 50 μL of 15 nM TAMRA-labeled dexamethasone. Positive controls were reaction mixtures containing no test compound; negative controls (blanks) were reaction mixtures containing 0.7 μM to 2 μM dexamethasone. […] IC50 values were determined by iterative non-linear curve fitting of the FP signal data to a 4-parameter logistic equation.

SMILES | activity in the GR binding assay
CC(c1ccccc1)C(O)(CC(C)(C)c1cc(F)ccc1O)C(=O)Nc1ccc2c(c1)COC2=O (centres unmarked) [4-(5-Fluoro-2-hydroxyphenyl)-2-hydroxy-4-methyl-2-(1-phenylethyl)pentanoic acid (1-oxo-1,3-dihydroisobenzofuran-5-yl)amide] | potent activity
COc1ccc(F)cc1C(C)(C)CC(O)(CC1CCCCC1)C(=O)Nc1ccc2c(=O)onc(C)c2c1 (centres unmarked) [2-Cyclohexylmethyl-4-(5-fluoro-2-methoxyphenyl)-2-hydroxy-4-methylpentanoic acid (4-methyl-1-oxo-1H-benzo[d][1,2]oxazin-6-yl)amide] | potent activity
Cc1noc(=O)c2ccc(NC(=O)C(O)(CC3CCCCC3)CC(C)(C)c3ccccc3)cc12 (centres unmarked) [2-Cyclohexylmethyl-2-hydroxy-4-methyl-4-phenylpentanoic acid (4-methyl-1-oxo-1H-benzo[d][1,2]oxazin-6-yl)amide] | potent activity
CC(C)(CC(O)(CC1CCCC1)C(=O)Nc1ccc2c(c1)COC2=O)c1cc(F)ccc1O (centres unmarked) [2-Cyclopentylmethyl-4-(5-fluoro-2-hydroxyphenyl)-2-hydroxy-4-methylpentanoic acid (1-oxo-1,3-dihydroisobenzofuran-5-yl)amide] | potent activity
CC(C)(CC(O)(Cc1ccc(F)c(F)c1)C(=O)Nc1ccc2c(c1)COC2=O)c1cc(F)ccc1O (centres unmarked) [2-(3,4-Difluorobenzyl)-4-(5-fluoro-2-hydroxyphenyl)-2-hydroxy-4-methylpentanoic acid (1-oxo-1,3-dihydroisobenzofuran-5-yl)amide] | potent activity
Cc1noc(=O)c2ccc(NC(=O)C(O)(Cc3ccccc3)CC(C)(C)c3cc(F)ccc3O)cc12 (centres unmarked) [2-Benzyl-4-(5-fluoro-2-hydroxyphenyl)-2-hydroxy-4-methylpentanoic acid (4-methyl-1-oxo-1H-benzo[d][1,2]oxazin-6-yl)amide] | potent activity
CC(C)(CC(O)(C(=O)Nc1ccc2c(c1)COC2=O)C1CCCC1)c1cc(F)ccc1O (centres unmarked) [2-Cyclopentyl-4-(5-fluoro-2-hydroxyphenyl)-2-hydroxy-4-methylpentanoic acid (1-oxo-1,3-dihydroisobenzofuran-5-yl)amide] | potent activity
CC(C)(CC(O)(CC1CCCCC1)C(=O)Nc1ccc2c(c1)COC2=O)c1cc(F)ccc1O (centres unmarked) [2-Cyclohexylmethyl-4-(5-fluoro-2-hydroxyphenyl)-2-hydroxy-4-methylpentanoic acid (1-oxo-1,3-dihydroisobenzofuran-5-yl)amide] | potent activity
CC(C)(CC(O)(CC(C)(C)c1ccccc1)C(=O)Nc1ccc2c(c1)COC2=O)c1ccccc1 [2-Hydroxy-4-methyl-2-(2-methyl-2-phenylpropyl)-4-phenylpentanoic acid (1-oxo-1,3-dihydroisobenzofuran-5-yl)amide] | potent activity
COc1ccc(F)cc1C(C)(C)CC(O)(CC1CCCCC1)C(=O)Nc1ccc2c(c1)COC2=O (centres unmarked) [2-Cyclohexylmethyl-4-(5-fluoro-2-methoxyphenyl)-2-hydroxy-4-methylpentanoic acid (1-oxo-1,3-dihydroisobenzofuran-5-yl)amide] | potent activity

Continued, values first:

activity in the GR binding assay | SMILES
potent activity | COc1ccc(F)cc1C(C)(C)CC(O)(Cc1ccccc1F)C(=O)Nc1ccc2c(c1)COC2=O (centres unmarked) [2-(2-Fluorobenzyl)-4-(5-fluoro-2-methoxyphenyl)-2-hydroxy-4-methylpentanoic acid (1-oxo-1,3-dihydroisobenzofuran-5-yl)amide]
potent activity | COc1ccc(F)cc1C(C)(C)CC(O)(Cc1ccccc1)C(=O)Nc1ccc2c(=O)onc(C)c2c1 (centres unmarked) [2-Benzyl-4-(5-fluoro-2-methoxyphenyl)-2-hydroxy-4-methylpentanoic acid (4-methyl-1-oxo-1H-benzo[d][1,2]oxazin-6-yl)amide]
potent activity | CC(C)(CC(O)(Cc1ccccc1O)C(=O)Nc1ccc2c(c1)COC2=O)c1cc(F)ccc1O (centres unmarked) [4-(5-Fluoro-2-hydroxyphenyl)-2-hydroxy-2-(2-hydroxybenzyl)-4-methylpentanoic acid (1-oxo-1,3-dihydroisobenzofuran-5-yl)amide]
potent activity | CC(C)(CC(O)(Cc1ccccc1Cl)C(=O)Nc1ccc2c(c1)COC2=O)c1cc(F)ccc1O (centres unmarked) [2-(2-Chlorobenzyl)-4-(5-fluoro-2-hydroxyphenyl)-2-hydroxy-4-methylpentanoic acid (1-oxo-1,3-dihydroisobenzofuran-5-yl)amide]
potent activity | COc1ccc(F)cc1C(C)(C)CC(O)(Cc1ccccc1Cl)C(=O)Nc1ccc2c(c1)COC2=O (centres unmarked) [2-(2-Chlorobenzyl)-4-(5-fluoro-2-methoxyphenyl)-2-hydroxy-4-methylpentanoic acid (1-oxo-1,3-dihydroisobenzofuran-5-yl)amide]
potent activity | COc1ccc(F)cc1C(C)(C)CC(O)(Cc1cccc(F)c1)C(=O)Nc1ccc2c(c1)COC2=O (centres unmarked) [2-(3-Fluorobenzyl)-4-(5-fluoro-2-methoxyphenyl)-2-hydroxy-4-methylpentanoic acid (1-oxo-1,3-dihydroisobenzofuran-5-yl)amide]
potent activity | CC(C)(CC(O)(Cc1ccccc1F)C(=O)Nc1ccc2c(c1)COC2=O)c1cc(F)ccc1O (centres unmarked) [2-(2-Fluorobenzyl)-4-(5-fluoro-2-hydroxyphenyl)-2-hydroxy-4-methylpentanoic acid (1-oxo-1,3-dihydroisobenzofuran-5-yl)amide]
potent activity | CC(C)(CC(O)(Cc1ccc(F)cc1)C(=O)Nc1ccc2c(c1)COC2=O)c1cc(F)ccc1O (centres unmarked) [2-(4-Fluorobenzyl)-4-(5-fluoro-2-hydroxyphenyl)-2-hydroxy-4-methylpentanoic acid (1-oxo-1,3-dihydroisobenzofuran-5-yl)amide]
potent activity | CC(C)(CC(O)(Cc1ccccc1Br)C(=O)Nc1ccc2c(c1)COC2=O)c1cc(F)ccc1O (centres unmarked) [2-(2-Bromobenzyl)-4-(5-fluoro-2-hydroxyphenyl)-2-hydroxy-4-methylpentanoic acid (1-oxo-1,3-dihydroisobenzofuran-5-yl)amide]
potent activity | COc1ccc(F)cc1C(C)(C)CC(O)(Cc1ccccc1)C(=O)Nc1ccc2c(c1)COC2=O (centres unmarked) [2-Benzyl-4-(5-fluoro-2-methoxyphenyl)-2-hydroxy-4-methylpentanoic acid (1-oxo-1,3-dihydroisobenzofuran-5-yl)amide]
potent activity | COc1ccc(F)cc1C(C)(C)CC(O)(Cc1ccccc1C)C(=O)Nc1ccc2c(c1)COC2=O (centres unmarked) [4-(5-Fluoro-2-methoxyphenyl)-2-hydroxy-4-methyl-2-(2-methylbenzyl)pentanoic acid (1-oxo-1,3-dihydroisobenzofuran-5-yl)amide]
potent activity | Cc1ccccc1CC(O)(CC(C)(C)c1cc(F)ccc1O)C(=O)Nc1ccc2c(c1)COC2=O (centres unmarked) [4-(5-Fluoro-2-hydroxyphenyl)-2-hydroxy-4-methyl-2-(2-methylbenzyl)pentanoic acid (1-oxo-1,3-dihydroisobenzofuran-5-yl)amide]
potent activity | CC(C)(CC(O)(CCc1ccccc1)C(=O)Nc1ccc2c(c1)COC2=O)c1cc(F)ccc1O (centres unmarked) [4-(5-Fluoro-2-hydroxyphenyl)-2-hydroxy-4-methyl-2-phenethylpentanoic acid (1-oxo-1,3-dihydroisobenzofuran-5-yl)amide]
